In ChEMBL document CHEMBL3853264 (Medchemcomm, 2016):
≈ marks a conversion by molar mass, not a printed value.

Legend:
[1] = Intrinsic clearance in rat liver microsomes; type: ADME; conditions: read-out: CLH
[2] = test system: P-gp; assay: Substrate activity at p-gp (unknown origin) assessed as efflux ratio of permeability; type: ADME; conditions: human, not told
[3] = molecular target: BCRP (ABCG2) (Homo sapiens, UniProt Q9UNQ0); assay: Substrate activity at BCRP (unknown origin) assessed as efflux ratio of permeability; type: ADME; conditions: not told
[4] = Solubility of the compound at pH 6.5; type: physicochemical; conditions: buffer
[5] = Dissociation constant, pKa of the compound; type: physicochemical
[6] = Intrinsic clearance in human liver microsomes; type: ADME; conditions: read-out: CLH
[7] = Octanol-water partition co-efficient, log D of the compound by shake flask method; type: physicochemical
[8] = Permeability in RRCK cells; type: ADME, cell-based, Canis lupus familiaris, MDCKII-LE; conditions: dog, MDCK; read-out: permeability
[9] = Intrinsic clearance in dog liver microsomes; type: ADME, Canis lupus familiaris; conditions: read-out: CLH
[10] = Fraction unbound in human plasma; type: ADME, cell-free
[11] = Fraction unbound in rat plasma; type: ADME, cell-free
[12] = Fraction unbound in dog plasma; type: ADME, cell-free, Canis lupus familiaris
[13] = molecular target: Solute carrier organic anion transporter family member 1B1 (Homo sapiens, UniProt Q9Y6L6); assay: Drug uptake assessed as human OATP1B1-mediated drug accumulation by cell-based assay relative to wild type protein; type: ADME
[14] = molecular target: Solute carrier organic anion transporter family member 1B3 (Homo sapiens, UniProt Q9NPD5); assay: Drug uptake assessed as human OATP1B3-mediated drug accumulation by cell-based assay relative to wild type protein; type: ADME
[15] = molecular target: Solute carrier organic anion transporter family member 2B1 (Homo sapiens, UniProt O94956); assay: Drug uptake assessed as human OATP2B1-mediated drug accumulation by cell-based assay relative to wild type protein; type: ADME
[16] = molecular target: Cytochrome P450 1A2 (Homo sapiens, UniProt P05177); assay: Inhibition of CYP1A2 (unknown origin); type: ADME
[17] = molecular target: Cytochrome P450 2C8 (Homo sapiens, UniProt P10632); assay: Inhibition of CYP2C8 (unknown origin); type: ADME
[18] = molecular target: Cytochrome P450 2C9 (Homo sapiens, UniProt P11712); assay: Inhibition of CYP2C9 (unknown origin); type: ADME
[19] = molecular target: Cytochrome P450 2C19 (Homo sapiens, UniProt P33261); assay: Inhibition of CYP2C19 (unknown origin); type: ADME
[20] = molecular target: Cytochrome P450 2D6 (Homo sapiens, UniProt P10635); assay: Inhibition of CYP2D6 (unknown origin); type: ADME
[21] = molecular target: Cytochrome P450 3A4 (Homo sapiens, UniProt P08684); assay: Inhibition of CYP3A4 (unknown origin); type: ADME
[22] = molecular target: Solute carrier family 22 member 6 (Homo sapiens, UniProt Q4U2R8); assay: Inhibition of OAT1 (unknown origin)
[23] = molecular target: Organic anion transporter 3 (Homo sapiens, UniProt Q8TCC7); assay: Inhibition of OAT3 (unknown origin)
[24] = molecular target: Solute carrier family 22 member 11 (Homo sapiens, UniProt Q9NSA0); assay: Inhibition of OAT4 (unknown origin)
[25] = Cytotoxicity against THLE cells; type: toxicity, cell-based; conditions: human
[26] = Mutagenicity in […] by Ames test in presence of […] fraction; type: toxicity
[27] = Mutagenicity in […] by Ames test in absence of […] fraction; type: toxicity
[28] = molecular target: Voltage-gated inwardly rectifying potassium channel KCNH2 (Homo sapiens, UniProt Q12809); assay: Inhibition of human ERG by patch clamp method
[29] = molecular target: Sodium channel protein type 5 subunit alpha (Homo sapiens, UniProt Q14524); assay: Inhibition of human NaV1.5 expressed in HEK293 cells by patch clamp method; type: cell-based
[30] = molecular target: Sodium channel protein type 9 subunit alpha (Homo sapiens, UniProt Q15858); assay: Inhibition of NaV1.7 (unknown origin) by electrophysiology assay
[31] = Inhibition of GABAA receptor (unknown origin); parameters: species or system Homo sapiens
[32] = Intrinsic clearance in human hepatocytes assessed per 10^6 cells; type: ADME, cell-based, Hepatocyte; conditions: read-out: CLH
[33] = Intrinsic clearance in rat hepatocytes assessed per 10^6 cells; type: ADME, cell-based, Hepatocyte; conditions: read-out: CLH
[34] = Intrinsic clearance in dog hepatocytes assessed per 10^6 cells; type: ADME, cell-based, Canis lupus familiaris, Hepatocyte; conditions: read-out: CLH
[35] = Plasma clearance in rat at 0.5 mg/kg, iv and 1 mg/kg, po; type: ADME, organism-based
[36] = Unbound clearance in rat at 0.5 mg/kg, iv and 1 mg/kg, po; type: ADME, organism-based; conditions: in vivo
[37] = Half life in rat at 0.5 mg/kg, iv and 1 mg/kg, po; type: ADME, organism-based; conditions: in vivo
[38] = Volume of distribution at steady state in rat at 0.5 mg/kg, iv and 1 mg/kg, po; type: ADME, organism-based; conditions: in vivo, read-out: Vdss
[39] = Oral bioavailability in rat at 1 mg/kg; type: ADME, organism-based; conditions: in vivo
[40] = Drug excretion in bile of bile duct cannulated rat; type: ADME; conditions: read-out: Drug excretion
[41] = Drug metabolism in human liver microsomes assessed as 2-chloro-4-(2-cyano-4-(N-(5-fluoropyridin-2-yl)sulfamoyl)phenoxy)benzoic acid formation; type: ADME
[42] = Drug metabolism in human hepatocytes assessed as 2-chloro-4-(2-cyano-4-(N-(5-fluoropyridin-2-yl)sulfamoyl)phenoxy)benzoic acid formation; type: ADME, cell-based, Hepatocyte
[43] = Drug metabolism in rat hepatocytes assessed as (2S,3S,4S,5R,6R)-6-(2-chloro-4-(2-cyano-4-(N-(5-fluoropyridin-2-yl)sulfamoyl)phenoxy)benzyloxy)-3,4,5-trihydroxytetrahydro-2H-pyran-2-carboxylic acid formation; type: ADME, cell-based, Hepatocyte
[44] = Toxicity in po dosed dog measured assessed as drug tolerance measured over 14 days; type: organism-based, Canis lupus familiaris; conditions: in vivo, 336 h
[45] = Toxicity in dog up to 100 mg/kg/day, po measured over 14 days by clinical pathology test; type: organism-based, Canis lupus familiaris; conditions: in vivo, 336 h
[46] = test system: Rattus norvegicus; assay: Toxicity in rat assessed as change in body weight up to 300 mg/kg/day, po measured over 14 days; type: organism-based; conditions: in vivo, 336 h
[47] = test system: Rattus norvegicus; assay: Toxicity in rat assessed as change in food consumption up to 300 mg/kg/day, po measured over 14 days; type: organism-based; conditions: in vivo, 336 h
[48] = test system: Rattus norvegicus; assay: Toxicity in rat assessed as hematological changes up to 300 mg/kg/day, po measured over 14 days; type: organism-based; conditions: in vivo, 336 h
[49] = test system: Rattus norvegicus; assay: Toxicity in rat up to 300 mg/kg/day, po measured over 14 days by clinical chemistry study; type: organism-based; conditions: in vivo, 336 h
[50] = test system: Rattus norvegicus; assay: Toxicity in rat assessed as change in organ weight up to 300 mg/kg/day, po measured over 14 days; type: organism-based; conditions: in vivo, 336 h
[51] = test system: Rattus norvegicus; assay: Toxicity in rat up to 300 mg/kg/day, po measured over 14 days by necropsy; type: organism-based; conditions: in vivo, 336 h
[52] = test system: Rattus norvegicus; assay: Toxicity in rat up to 300 mg/kg/day, po measured over 14 days by microscopic study; type: organism-based; conditions: in vivo, 336 h
[53] = Unbound Cmax in rat at 300 mg/kg, po administered as single dose measured on day 14; type: ADME, organism-based; conditions: in vivo
[54] = Average plasma concentration in rat at 300 mg/kg, po administered as single dose measured on day 14; type: ADME, organism-based; conditions: in vivo
[55] = test system: Rattus norvegicus; assay: Toxicity in po dosed rat assessed as drug tolerance measured over 14 days; type: organism-based; conditions: in vivo, 336 h
[56] = Toxicity in dog up to 100 mg/kg/day, po measured over 14 days by histologic test; type: organism-based, Canis lupus familiaris; conditions: in vivo, 336 h
[57] = Toxicity in dog assessed as emesis at 100 mg/kg/day, po measured over 14 days by histologic test; type: organism-based, Canis lupus familiaris; conditions: in vivo, 336 h
[58] = Toxicity in dog assessed as salivation at 100 mg/kg/day, po measured over 14 days by histologic test; type: organism-based, Canis lupus familiaris; conditions: in vivo, 336 h
[59] = Toxicity in dog assessed as decrease in hepatic glycogen content at 100 mg/kg/day, po measured over 14 days; type: organism-based, Canis lupus familiaris; conditions: in vivo, 336 h
[60] = Toxicity in dog assessed as decrease in serum glucose at 100 mg/kg/day, po measured over 14 days; type: organism-based, Canis lupus familiaris; conditions: in vivo, 336 h
[61] = Unbound Cmax in dog at 100 mg/kg, po administered as single dose measured on day 14; type: ADME, organism-based, Canis lupus familiaris; conditions: in vivo
[62] = Average plasma concentration in dog at 100 mg/kg, po administered as single dose measured on day 14; type: ADME, organism-based, Canis lupus familiaris; conditions: in vivo
[63] = test system: Rattus norvegicus; assay: Cardiovascular toxicity in rat up to 30 mg/kg/day, po measured over 14 days; type: organism-based; conditions: in vivo, 336 h
[64] = test system: Rattus norvegicus; assay: Toxicity in rat assessed as increase in blood pressure at 100 mg/kg/day, po measured over 14 days; type: organism-based; conditions: in vivo, 336 h
[65] = Unbound Cmax in rat at 30 mg/kg, po administered as single dose measured on day 14; type: ADME, organism-based; conditions: in vivo
[66] = Average plasma concentration in rat at 30 mg/kg, po administered as single dose measured on day 14; type: ADME, organism-based; conditions: in vivo

Chain of Sodium channel protein type 5 subunit alpha (Q14524 whole entry): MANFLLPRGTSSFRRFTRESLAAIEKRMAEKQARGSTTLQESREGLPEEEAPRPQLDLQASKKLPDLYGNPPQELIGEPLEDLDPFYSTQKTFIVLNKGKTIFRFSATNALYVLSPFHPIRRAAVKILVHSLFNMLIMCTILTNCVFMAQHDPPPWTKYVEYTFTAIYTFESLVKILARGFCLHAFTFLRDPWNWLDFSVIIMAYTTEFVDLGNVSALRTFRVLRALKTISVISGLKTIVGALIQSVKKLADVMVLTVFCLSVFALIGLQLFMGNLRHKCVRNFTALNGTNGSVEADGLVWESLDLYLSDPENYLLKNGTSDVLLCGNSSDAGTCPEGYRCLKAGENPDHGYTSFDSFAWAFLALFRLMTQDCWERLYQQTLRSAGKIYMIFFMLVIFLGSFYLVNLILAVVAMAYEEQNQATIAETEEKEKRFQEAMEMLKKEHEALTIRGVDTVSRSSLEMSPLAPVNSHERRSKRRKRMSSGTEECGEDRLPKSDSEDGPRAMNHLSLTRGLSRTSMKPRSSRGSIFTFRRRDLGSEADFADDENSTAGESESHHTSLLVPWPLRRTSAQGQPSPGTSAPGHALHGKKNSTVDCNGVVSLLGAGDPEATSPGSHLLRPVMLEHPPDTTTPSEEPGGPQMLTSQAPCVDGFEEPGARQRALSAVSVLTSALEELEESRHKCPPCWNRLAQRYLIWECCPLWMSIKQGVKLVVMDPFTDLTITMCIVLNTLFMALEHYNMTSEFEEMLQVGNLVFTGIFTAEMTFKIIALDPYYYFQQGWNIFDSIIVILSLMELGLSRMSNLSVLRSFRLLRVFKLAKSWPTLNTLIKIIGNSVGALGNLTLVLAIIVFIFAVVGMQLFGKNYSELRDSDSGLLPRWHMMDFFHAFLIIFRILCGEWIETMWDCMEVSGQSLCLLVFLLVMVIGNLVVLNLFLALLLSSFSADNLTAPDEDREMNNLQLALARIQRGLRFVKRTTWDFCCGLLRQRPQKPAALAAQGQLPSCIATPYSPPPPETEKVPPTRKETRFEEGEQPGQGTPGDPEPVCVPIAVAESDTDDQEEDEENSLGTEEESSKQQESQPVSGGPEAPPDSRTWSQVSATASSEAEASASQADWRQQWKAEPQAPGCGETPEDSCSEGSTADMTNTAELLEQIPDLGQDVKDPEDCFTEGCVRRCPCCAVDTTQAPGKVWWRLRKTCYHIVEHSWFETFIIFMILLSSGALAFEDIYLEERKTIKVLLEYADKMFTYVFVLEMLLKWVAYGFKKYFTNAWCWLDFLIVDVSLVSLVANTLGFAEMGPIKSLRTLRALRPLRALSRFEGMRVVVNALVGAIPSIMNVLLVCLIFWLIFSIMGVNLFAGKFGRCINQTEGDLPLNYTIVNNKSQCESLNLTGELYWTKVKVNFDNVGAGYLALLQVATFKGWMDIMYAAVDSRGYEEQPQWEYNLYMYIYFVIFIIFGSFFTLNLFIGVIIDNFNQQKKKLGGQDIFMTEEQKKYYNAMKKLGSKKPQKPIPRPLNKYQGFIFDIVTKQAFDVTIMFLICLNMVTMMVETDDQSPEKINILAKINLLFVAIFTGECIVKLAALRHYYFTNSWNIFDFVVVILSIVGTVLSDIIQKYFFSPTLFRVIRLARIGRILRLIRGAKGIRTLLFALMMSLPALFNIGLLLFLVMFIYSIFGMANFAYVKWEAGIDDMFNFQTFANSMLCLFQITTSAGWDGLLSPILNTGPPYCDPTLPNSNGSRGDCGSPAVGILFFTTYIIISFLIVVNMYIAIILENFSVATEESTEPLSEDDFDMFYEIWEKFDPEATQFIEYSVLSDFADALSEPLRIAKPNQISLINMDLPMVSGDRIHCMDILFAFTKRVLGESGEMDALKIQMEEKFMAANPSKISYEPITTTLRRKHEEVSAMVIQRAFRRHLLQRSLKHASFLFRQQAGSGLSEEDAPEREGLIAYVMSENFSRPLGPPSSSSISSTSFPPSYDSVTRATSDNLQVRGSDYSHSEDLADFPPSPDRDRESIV
Chain of Solute carrier family 22 member 11 (Q9NSA0 whole entry): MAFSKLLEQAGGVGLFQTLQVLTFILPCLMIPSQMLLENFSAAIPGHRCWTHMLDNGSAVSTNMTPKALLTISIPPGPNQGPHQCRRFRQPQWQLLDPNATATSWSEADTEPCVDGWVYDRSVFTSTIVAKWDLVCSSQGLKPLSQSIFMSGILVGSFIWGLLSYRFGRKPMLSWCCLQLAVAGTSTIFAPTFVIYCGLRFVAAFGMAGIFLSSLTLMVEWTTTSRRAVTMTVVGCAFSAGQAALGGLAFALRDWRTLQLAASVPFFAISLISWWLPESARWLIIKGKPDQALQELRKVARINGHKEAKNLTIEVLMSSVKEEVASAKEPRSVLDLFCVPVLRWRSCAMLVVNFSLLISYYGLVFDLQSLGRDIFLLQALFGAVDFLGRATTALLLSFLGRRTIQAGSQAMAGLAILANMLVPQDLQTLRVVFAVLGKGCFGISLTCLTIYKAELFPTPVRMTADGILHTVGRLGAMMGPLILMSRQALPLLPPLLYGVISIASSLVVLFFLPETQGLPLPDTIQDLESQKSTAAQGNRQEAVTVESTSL
Chain of Cytochrome P450 2C9 (P11712 whole entry): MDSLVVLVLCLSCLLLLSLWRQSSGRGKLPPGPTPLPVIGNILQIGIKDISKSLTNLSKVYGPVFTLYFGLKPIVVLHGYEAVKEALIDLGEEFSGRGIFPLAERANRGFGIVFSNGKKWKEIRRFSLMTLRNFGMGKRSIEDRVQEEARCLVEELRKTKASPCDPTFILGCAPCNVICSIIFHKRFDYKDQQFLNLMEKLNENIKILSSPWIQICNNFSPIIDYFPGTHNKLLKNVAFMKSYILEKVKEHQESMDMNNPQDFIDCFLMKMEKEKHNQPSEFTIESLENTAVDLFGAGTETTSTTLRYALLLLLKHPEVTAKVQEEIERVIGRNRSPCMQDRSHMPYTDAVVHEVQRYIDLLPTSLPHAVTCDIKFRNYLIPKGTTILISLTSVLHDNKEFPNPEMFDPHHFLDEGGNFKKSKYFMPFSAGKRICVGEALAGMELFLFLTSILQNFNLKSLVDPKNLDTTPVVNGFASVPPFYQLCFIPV
Chain of Cytochrome P450 2D6 (P10635 whole entry): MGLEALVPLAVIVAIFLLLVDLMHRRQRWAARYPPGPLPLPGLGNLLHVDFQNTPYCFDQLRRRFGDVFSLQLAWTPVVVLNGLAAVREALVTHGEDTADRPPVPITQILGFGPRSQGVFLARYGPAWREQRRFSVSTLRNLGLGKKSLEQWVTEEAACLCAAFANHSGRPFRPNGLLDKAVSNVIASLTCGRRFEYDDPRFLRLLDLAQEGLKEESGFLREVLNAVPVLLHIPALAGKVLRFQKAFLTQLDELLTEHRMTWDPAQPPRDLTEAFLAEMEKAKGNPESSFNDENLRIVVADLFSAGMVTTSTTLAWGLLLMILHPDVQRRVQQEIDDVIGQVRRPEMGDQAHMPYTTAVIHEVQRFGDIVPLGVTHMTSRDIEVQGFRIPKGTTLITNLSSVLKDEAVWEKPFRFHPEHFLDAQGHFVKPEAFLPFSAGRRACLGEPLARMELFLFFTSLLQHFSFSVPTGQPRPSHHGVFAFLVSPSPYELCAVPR
Chain of BCRP (ABCG2) (Q9UNQ0 whole entry): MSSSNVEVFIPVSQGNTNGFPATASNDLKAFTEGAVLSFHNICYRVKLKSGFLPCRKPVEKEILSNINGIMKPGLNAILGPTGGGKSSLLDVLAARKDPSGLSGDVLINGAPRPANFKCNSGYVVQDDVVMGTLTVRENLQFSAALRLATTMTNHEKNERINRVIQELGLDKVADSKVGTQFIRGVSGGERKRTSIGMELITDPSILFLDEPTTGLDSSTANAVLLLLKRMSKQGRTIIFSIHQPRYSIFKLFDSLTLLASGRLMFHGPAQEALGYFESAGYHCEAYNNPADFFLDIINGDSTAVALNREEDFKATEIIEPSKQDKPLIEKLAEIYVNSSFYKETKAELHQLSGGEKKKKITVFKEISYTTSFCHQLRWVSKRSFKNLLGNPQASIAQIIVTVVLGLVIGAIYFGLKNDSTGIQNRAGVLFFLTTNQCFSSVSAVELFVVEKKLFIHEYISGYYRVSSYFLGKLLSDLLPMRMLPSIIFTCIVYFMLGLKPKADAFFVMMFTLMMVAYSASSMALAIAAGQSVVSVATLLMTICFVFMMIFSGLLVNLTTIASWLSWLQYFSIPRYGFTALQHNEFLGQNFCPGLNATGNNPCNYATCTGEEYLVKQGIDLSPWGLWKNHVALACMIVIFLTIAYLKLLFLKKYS
Chain of Cytochrome P450 2C19 (P33261 whole entry): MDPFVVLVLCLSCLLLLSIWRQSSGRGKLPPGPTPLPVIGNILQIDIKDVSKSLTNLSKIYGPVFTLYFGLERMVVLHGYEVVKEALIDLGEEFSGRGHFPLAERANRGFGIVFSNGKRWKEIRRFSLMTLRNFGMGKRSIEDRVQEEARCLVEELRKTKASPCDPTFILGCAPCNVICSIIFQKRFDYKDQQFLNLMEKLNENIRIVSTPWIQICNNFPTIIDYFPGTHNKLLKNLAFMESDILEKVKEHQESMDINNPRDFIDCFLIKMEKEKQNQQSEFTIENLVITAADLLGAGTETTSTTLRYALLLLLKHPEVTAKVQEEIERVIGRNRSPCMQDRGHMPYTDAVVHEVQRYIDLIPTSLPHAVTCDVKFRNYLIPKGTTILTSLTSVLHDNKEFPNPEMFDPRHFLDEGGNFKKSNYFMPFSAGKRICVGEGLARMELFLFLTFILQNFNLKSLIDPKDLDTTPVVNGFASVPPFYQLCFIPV

N#Cc1cc(S(=O)(=O)Nc2ccc(F)cn2)ccc1Oc1ccc(CO)c(Cl)c1
microsomal CLint [1]: < 14 µL/min/mg
efflux ratio [2]: 1.9
efflux ratio [3]: 34
solubility [4]: 15.3 µM (≈ 6.64 µg/mL)
pKa [5]: 5.7
microsomal CLint [6]: < 10 µL/min/mg
logD [7]: 2.1
Papp [8]: 12 ×10⁻⁶ cm/s
microsomal CLint [9]: < 18 µL/min/mg
fraction unbound [10]: 0.0083
fraction unbound [11]: 0.0043
fraction unbound [12]: 0.014
fold change (FC) [13]: 1.181
fold change (FC) [14]: 1.124
fold change (FC) [15]: 1.48
IC50 [16]: > 30 µM
IC50 [17]: 9.9 µM
IC50 [18]: 2 µM
IC50 [19]: 17.5 µM
IC50 [20]: > 30 µM
IC50 [21]: > 30 µM
IC50 [22]: 14.3 µM
IC50 [23]: 0.5 µM
IC50 [24]: 15 µM
Activity [25]: 105 µM
Activity [26]: Non-Toxic
Activity [27]: Non-Toxic
IC50 [28]: > 100 µM
IC50 [29]: > 30 µM
IC50 [30]: > 30 µM
Ki [31]: > 10 µM
hepatocyte CLint [32]: 23 µL/min/1e6 cells
hepatocyte CLint [33]: 82 µL/min/1e6 cells
hepatocyte CLint [34]: < 6 µL/min/1e6 cells
clearance [35]: 1.3 mL/min/kg
CL free [36]: 93 mL/min/kg
half-life [37]: 3.9 h
Vd [38]: 0.27 L/kg
bioavailability [39]: 50%
dose excreted [40]: 10%
Drug metabolism [41]: Metabolite_Detected
Drug metabolism [42]: Metabolite_Detected
Drug metabolism [43]: Metabolite_Detected
Activity [44]: <= 100 mg/kg/day
Activity [45]: Non-Toxic
Activity [46]: Non-Toxic
Activity [47]: Non-Toxic
Activity [48]: Non-Toxic
Activity [49]: Non-Toxic
Activity [50]: Non-Toxic
Activity [51]: Non-Toxic
Activity [52]: Non-Toxic
fCmax [53]: 537 nM
Cave [54]: 240 nM
Activity [55]: <= 300 mg/kg/day
Activity [56]: Non-Toxic
Activity [57]: Toxic
Activity [58]: Toxic
Activity [59]: Toxic
Activity [60]: Toxic
fCmax [61]: 3.905 µM
Cave [62]: 1019 nM
Activity [63]: Non-Toxic
Activity [64]: Non-Toxic
fCmax [65]: 98 nM
Cave [66]: 43 nM
